Entries after “also recorded” stand apart in the source; their conditions may differ.
Tested on: microorganisms (e.g., bacteria, yeasts, fungi)
Experiment: Targeting peptide binding to target microorganisms (Table 3)
Settings: data not shown

Row | Substance | bacterial binding
1 | DAANEA [BL-1] | no bacterial binding

Same assay, conditions: microorganism the targeting peptide binds; binding in aqueous buffers varied by peptide solubility, preferably 1x PBS

Row | Substance | Target(s)
2 | TT-311 (AIFDAMHNL; Peptide with targeting and/or antimicrobial activity) | S. mutans; also recorded: S. sobrinus
3 | 1T-250 (LVQGDTILIENHVGTPVKDDGKDCLIIREADVLAVVND; Peptide with targeting and/or antimicrobial activity) [Peptide 1T-250] | S. mitis; also recorded: S. mutans; also recorded: S. oralis
4 | 1T-125 (DAITGGNPPLSDTDGLRP; Peptide with targeting and/or antimicrobial activity) [Peptide 1T-125] | S. epidermidis; also recorded: S. gordonii; also recorded: S. mutans; also recorded: S. oralis
5 | PF-055 (GHVFNGNNKRNL; Peptide with targeting and/or antimicrobial activity) | S. mutans
6 | 1T-207 (SPLEKYGTGSMTALTFLLGCCLLVLSKKSR; Peptide with targeting and/or antimicrobial activity) [Peptide 1T-207] | F. nucleatum; also recorded: S. sanguinis
7 | 1T-9 (WAWAESPRCVSTRSNIHALAFRVEVAALT; Peptide with targeting and/or antimicrobial activity) [Peptide 1T-9] | M. xanthus
8 | 1T-67 (GQRQRLTCGRVSGCSEGPSREAAR; Peptide with targeting and/or antimicrobial activity) [Peptide 1T-67] | S. aureus; also recorded: S. epidermidis; also recorded: C. jeikeium; also recorded: C. xerosis; also recorded: C. striatum; also recorded: P. aeruginosa
9 | 1T-17 (NNAIVYIS; Peptide with targeting and/or antimicrobial activity) [Peptide 1T-17] | S. mutans
10 | 1T-18 (YSKTLHFAD; Peptide with targeting and/or antimicrobial activity) [Peptide 1T-18] | S. aureus; also recorded: S. epidermidis; also recorded: C. striatum; also recorded: P. aeruginosa
11 | 1T-74 (DIDWGRKISCAAGVAYGAIDGCATTV; Peptide with targeting and/or antimicrobial activity) [Peptide 1T-74] | S. pneumoniae
12 | 1T-59 (AVGNNLGKDNDSGHRGKKHRKHKHR; Peptide with targeting and/or antimicrobial activity) [Peptide 1T-59] | S. aureus; also recorded: S. epidermidis; also recorded: P. aeruginosa
13 | 1T-106 (DALRRSRSQGRRHR; Peptide with targeting and/or antimicrobial activity) [Peptide 1T-106] | S. gordonii; also recorded: S. mitis; also recorded: S. mutans; also recorded: S. oralis; also recorded: S. salivarious
14 | 1T-79 (FGTPWSITNFWKKNFNDRPDFDSDRRRY; Peptide with targeting and/or antimicrobial activity) [Peptide 1T-79] | S. pneumoniae
15 | 1T-192 (ILVLLALQVELDSKFQY; Peptide with targeting and/or antimicrobial activity) [Peptide 1T-192] | S. sanguinis
16 | 1T-7 (SQRIIEPVKSPQPYPGFSVS; Peptide with targeting and/or antimicrobial activity) [Peptide 1T-7] | M. xanthus
17 | 1T-43 (DRCLSVLSWSPPKVSPLI; Peptide with targeting and/or antimicrobial activity) [Peptide 1T-43] | C. jeikium; also recorded: P. aeruginosa
18 | 1T-66 (DTDCLSRAYAQRIDELDKQYAGIDKPL; Peptide with targeting and/or antimicrobial activity) [Peptide 1T-66] | S. mutans; also recorded: S. aureus; also recorded: S. epidermidis; also recorded: C. jeikeium; also recorded: C. xerosis; also recorded: C. striatum; also recorded: P. aeruginosa
19 | 1T-45 (WTKPSFTDLRLGFEVTLYFANR; Peptide with targeting and/or antimicrobial activity) [Peptide 1T-45] | S. aureus; also recorded: S. epidermidis; also recorded: C. striatum; also recorded: P. aeruginosa
20 | 1T-51 (GKPKRMPAEFIDGYGQALLAGA; Peptide with targeting and/or antimicrobial activity) [Peptide 1T-51] | S. aureus; also recorded: P. aeruginosa
21 | 1T-35 (EICLTLVFPIRGSYSEAAKFPVPIHIVEDGTVELPK; Peptide with targeting and/or antimicrobial activity) [Peptide 1T-35] | P. aeruginosa
22 | 1T-21 (YVEEAVRAALKKEARISTEDTPVNLPSFDC; Peptide with targeting and/or antimicrobial activity) [Peptide 1T-21] | S. mutans; also recorded: P. aeruginosa
23 | 1T-83 (QKPRKNETFIGYIQRYDIDGNGYQSLPCPQN; Peptide with targeting and/or antimicrobial activity) [Peptide 1T-83] | S. pneumoniae
24 | PF-016 (RKQYDDLSFNFLY; Peptide with targeting and/or antimicrobial activity) | S. epidermidis; also recorded: E. faecalis; also recorded: C. jeikeium

Same assay, conditions: microorganism(s) the targeting peptide binds; binding in aqueous buffers depending on peptide solubility, preferably 1x PBS

Row | Substance | Target(s)
25 | PF-337 (YMTKKLVEMAERQMAGK; Peptide with targeting and/or antimicrobial activity) | S. epidermidis
26 | PF-202 (ALNRASLRLALGE; Peptide with targeting and/or antimicrobial activity) | S. epidermidis and M. luteus and E. coli and MRSA and E. faecalis and C. jeikeium and C. jejuni
27 | PF-097 (QPTQGEQGTRPRRPTPMRGLLI; Peptide with targeting and/or antimicrobial activity) | C. jeikeium
28 | PF-193 (PPHCPPGHAKKGWC; Peptide with targeting and/or antimicrobial activity) | S. epidermidis and M. luteus and E. coli and MRSA and E. faecalis and C. jejuni
29 | PF-348 (ESASAAEWYNPNMNVKKAICMG; Peptide with targeting and/or antimicrobial activity) | B. subtilis; also recorded: E. coli; also recorded: P. aeruginosa; also recorded: C. albicans; also recorded: E. faecalis; also recorded: C. jejuni
30 | PF-165 (GPVSVVASLRRGTTVQRHSQNNHNKGKP; Peptide with targeting and/or antimicrobial activity) | MRSA and C. jejuni
31 | PF-214 (GHLRVCWVFSASLLTPFRSATLI; Peptide with targeting and/or antimicrobial activity) | S. mutans; also recorded: S. epidermidis; also recorded: M. luteus; also recorded: E. coli; also recorded: P. aeruginosa; also recorded: A. baumannii
32 | PF-262 (DPHSEIDVTRYCQLHHFTCQTMQISEREFHYLIETQ; Peptide with targeting and/or antimicrobial activity) | S. mutans; also recorded: S. epidermidis; also recorded: M. luteus; also recorded: E. coli; also recorded: P. aeruginosa; also recorded: A. baumannii
33 | PF-134 (GKAMKRQDCSAL; Peptide with targeting and/or antimicrobial activity) | S. epidermidis; also recorded: C. jeikeium
34 | PF-279 (SHIGFISISACLAVLLGIARLFVWTWVKFFA; Peptide with targeting and/or antimicrobial activity) | S. mutans; also recorded: S. epidermidis; also recorded: M. luteus; also recorded: E. coli; also recorded: P. aeruginosa; also recorded: A. baumannii
35 | PF-266 (DQEKKNKTEESTEQ; Peptide with targeting and/or antimicrobial activity) | S. mutans
36 | PF-367 (TKTPGTFTPGTGIQKTAVPL; Peptide with targeting and/or antimicrobial activity) | B. subtilis

Same assay, conditions: microorganism(s) the targeting peptide binds; peptide binding conducted in aqueous buffers varied by peptide solubility, preferably 1x PBS

Row | Substance | Target(s)
37 | PF-388 (ITPLLDEIGKVCIDKISK; Peptide with targeting and/or antimicrobial activity) | E. faecalis; also recorded: C. jeikeium; also recorded: C. jejuni
38 | PF-492 (IQIDAASFYSISKSTIK; Peptide with targeting and/or antimicrobial activity) | S. mutans; also recorded: B. subtilis; also recorded: E. coli

Same assay, conditions: peptide binding in aqueous buffers varied by peptide solubility; preferably 1x PBS

Row | Substance | Target(s) (microorganisms bound by the targeting peptide)
39 | PF-797 (WYYFDNNGYM; Peptide with targeting and/or antimicrobial activity) | S. mutans
40 | PF-C134 (NELMKYPATLTATATTPGIKYSHLCSVCL; Peptide with targeting and/or antimicrobial activity) | A. naeslundii; also recorded: F. nucleatum; also recorded: P. gingivalis; also recorded: S. mutans; also recorded: T. denticola
41 | PF-S004 (VLLNIFRTLLEFFSPSNAPGAEDVPLPDTQA; Peptide with targeting and/or antimicrobial activity) | S. epidermidis and MRSA and C. jeikeium
42 | PF-733 (VISRQMGSEAVLELFIIM; Peptide with targeting and/or antimicrobial activity) | S. mutans; also recorded: E. coli
43 | PF-794 (NLYFENQGN; Peptide with targeting and/or antimicrobial activity) | S. mutans
44 | PF-750 (AESSPAKTTA; Peptide with targeting and/or antimicrobial activity) | M. luteus; also recorded: C. jeikeium
45 | PF-732 (DRPSQTTHHTLSSSRITGPS; Peptide with targeting and/or antimicrobial activity) | E. coli
46 | PF-766 (DAYYAQLRKQKEIEEGA; Peptide with targeting and/or antimicrobial activity) | S. epidermidis and M. luteus and C. albicans and MRSA and E. faecalis and C. jeikeium
47 | PF-689 (SAPSG; Peptide with targeting and/or antimicrobial activity) | S. mutans; also recorded: E. coli
48 | PF-674 (DGCDSEPALTYR; Peptide with targeting and/or antimicrobial activity) | S. mutans; also recorded: E. coli
